The subject of test [1] is HIV. The test is described as follows: Second clinical study of HIV+ patients: blood HIV count. In kind it is in vivo. The note with it: for BLOOD HIV COUNT LOG VALUE / BLOOD HIV COUNT RESULTS: one value per patient. The procedure: Nine of the patients in Example III were given a second treatment of TPA. Of these nine, seven were asymptomatic at the beginning of the second trial. A tenth patient (patient #2a) who was symptomatic and had not previously been treated with TPA was added to the study. Each patient was administered a weight adjusted dosage of TPA (75 μg/sq m) in 200 ml of sterile saline intravenously over one hour. This dosage was given to each patient once a day for ten consecutive days followed by a rest period of ten days for three cycles and a total of 30 doses of TPA. Patients 5a, 6a, and 8a stopped taking anti-AIDS drugs one month prior to beginning the TPA treatment and beginning again one month after the third cycle. Patients 1-4-a, 7a, and 9a-10a continued taking anti-AIDS drugs throughout the treatment.
Blood samples were taken three days prior to starting treatment, after completing the first 10 day cycle of TPA infusion and again after the last TPA infusion and CD3, CD4, CD8, WBC, RBC, HGB and platelets were measured.

Test [2] can be described thus: Treatment of carpal tunnel syndrome (patient case). Type of test: in vivo, human. From the text:
Patient with burning, tingling, pain and numbness in their fingers.

In test [3] the test system is HIV. Kind of test: First clinical study of HIV+ patients: blood HIV count. In kind it is in vivo. As to the method: Twelve symptomatic patients (five males and seven females) between the ages of 35 to 52 all of whom were infected with HIV in 1995 through blood transfusion and were refractory to standard treatments for HIV were treated with TPA. Each patient was administered a weight adjusted dosage of TPA (75 μg/sq m) in 200 ml of sterile saline by i.v. over one hour. This dose was administered once daily for the first three days of treatment. Each patient was then given this dose every other day for days 4 to 18 followed by a six month rest period prior to a second course of treatment according to the same protocol.

The mark [4] stands for this setting: 15th day during TPA (patient 07).
The mark [5] stands for this setting: 4 days after initial TPA, one value per patient.
[6] abbreviates: 15 days after initial TPA, one value per patient.
Setting [7] is: 25 days after initial TPA, one value per patient.

Molecules are shown by their SMILES. Values joined by “and” are separate entries in the source; they are usually repeats but may differ in a detail not shown here. Equal entries are not always repeated.

Results on one compound are retold here after patent US9636317B2, “Compositions and methods of use of phorbol esters” (priority 2007, dated 2017).

As for `CCCCCCCCCCCCCC(=O)O[C@@H]1[C@@H](C)[C@@]2(O)[C@@H](C=C(CO)C[C@]3(O)C(=O)C(C)=C[C@@H]23)[C@@H]2C(C)(C)[C@]12OC(C)=O` [TPA, 12-O-tetradecanoylphorbol-13-acetate], the “BLOOD HIV COUNT LOG VALUE” in test [1] (after first cycle TPA infusion) is 5.490 and 2.371 and 4.825 and 5.217 and 5.450 and 5.475; in test [1] (after third cycle TPA infusion) it was 5.966 and 3.980 and 3.376 and 4.792 and 5.371 and 5.270 and 5.973; in test [3] (setting [4]), 4.988; in test [3] (setting [5]), 6.899 and 4.910 and 7.243 and 5.974 and 4.160 and 5.179 and 5.959 and 6.151; in test [3] (7 days after TPA (patient 06)), 6.357; in test [3] (setting [6]), 4.306 and 6.801 and 3.786 and 6.614 and 7.369 and 5.274 and 6.737. The “BLOOD HIV COUNT LOG VALUE” was 4.416 and 6.941 and 5.934 and 4.084 and 6.745 and 3.724 and 6.890 in test [3] (setting [7]); 4.446 and 5.096 and 3.798 in test [3] (25 days after initial TPA, sample taken from the second cycle treatment (patients 10-12)). Also, the “BLOOD HIV COUNT RESULTS” value in test [1] (after first cycle TPA infusion) is 3.09 × 10^5 copies/ml and lower the 500 copies/ml and undetectable (4×) and 6.68 × 10^4 copies/ml and 1.65 × 10^5 copies/ml and 2.82 × 10^5 copies/ml and 2.99 × 10^5 copies/ml; in test [1] (after third cycle TPA infusion) it was 9.24 × 10^5 copies/ml and 9.55 × 10^3 copies/ml and 2.38 × 10^3 copies/ml and undetectable (3×) and 6.20 × 10^4 copies/ml and 2.35 × 10^5 copies/ml and 1.86 × 10^5 copies/ml and 9.41 × 10^5 copies/ml; in test [3] (setting [4]) it was 9.74 × 10^4 copies/ml; in test [3] (setting [5]), 7.92 × 10^6 copies/ml and 8.13 × 10^4 copies/ml and 1.75 × 10^7 copies/ml and 9.42 × 10^5 copies/ml and 1.44 × 10^4 copies/ml and 1.51 × 10^5 copies/ml and 9.09 × 10^5 copies/ml and 1.41 × 10^4 copies/ml; in test [3] (7 days after TPA (patient 06)) it was 2.28 × 10^6 copies/ml; in test [3] (setting [6]) it was 2.02 × 10^4 copies/ml and 6.33 × 10^6 copies/ml and 6.11 × 10^3 copies/ml and 1.11 × 10^6 copies/ml and 2.34 × 10^7 copies/ml and 1.88 × 10^5 copies/ml and 5.46 × 10^6 copies/ml. Moreover, the “BLOOD HIV COUNT RESULTS” value in test [3] (setting [7]) was 2.60 × 10^4 copies/ml and 8.72 × 10^6 copies/ml and 8.59 × 10^5 copies/ml and 1.21 × 10^4 copies/ml and 5.56 × 10^6 copies/ml and 5.30 × 10^3 copies/ml and 7.77 × 10^6 copies/ml and undetectable. In addition, the “viral load of HIV (summary)” value in test [1] (ten patients) is “undetectable in three patients (<200); it increased somewhat in six others and was reduced in one”. Further, the use of hands entry in test [2] is listed as “regained full use of their hands”. For the same compound, the “change of viral load (summary of Table 2)” value in test [3] (twelve patients) was “five patients having an increase in HIV and no change or a reduction in seven others”.
